The source of these data is patent publication US7505101B2, “Liquid crystal display” (Fujifilm Corporation, priority 2004, dated 2009).

The nature of the series: octanol-water partition coefficient (Log P value). The series is classed as physicochemical. The following applies: octanol-water distribution coefficient. The source says:
In the preparation of the cellulose acylate film according to the invention, among the aforementioned compound for suppressing an alignment of cellulose acylate in the film along the in-plane direction and the direction of film thickness thereby sufficiently reducing Rth, preferred is a compound having an octanol-water distribution coefficient (log P value) within a range of from 0 to 7. […] Also, a compound having a log P value or 0 or more has a lower hydrophilicity and thus can suppress deterioration of the water resistance of the cellulose acylate film. The log P value is more preferably within a range of from 1 to 6, and particularly preferably 1.5 to 5. The octanol-water distribution coefficient (log P value) can be measured by a flask […] method described in Japan Industrial Standards (JIS) Z7260-107 (2000). The octanol-water distribution coefficient (log P value) may also be estimated, instead of an actual measurement, by a calculational chemical method or an empirical method. […]

In general, logP refers to a log measure of how a compound divides between an organic and an aqueous phase. Read a low logP as a more hydrophilic compound. The compound `CCCCCCCCOc1ccc(C(=O)c2ccccc2)c(O)c1` [UV-102] registered a logP of 5.6.

As for `Cc1ccc(S(=O)(=O)Nc2ccccc2)cc1` [A-19], the lipophilicity (logP) came to 2.9.
